Structures can show the parent of a compound that is named as a salt.
Key:
[1] = system: Stellaria media; test: Example 7b field trial, 2-4 leaf stage: herbicidal effect; type: in vivo; details: 50 g of ai/ha; 28 days after application
Method: (§1) The herbicidal efficacy of the active compounds or active compound mixtures was scored visually using the treated plots in comparison to untreated control plots. The damage and development of all above-ground parts of the plants were recorded. Scoring was carried out using a percentage scale (100% effect=all plants killed; 50% effect=50% of the plants and the green parts of the plants killed; 0% effect=no noticeable effect=like control plot. The scores of in each case 4 plots were averaged.
(§2) If the observed activity values already exceed the formal sum of the values for the trials with the individual applications, they also exceed the expected value according to Colby which is calculated using the following formula and which is likewise considered to be an indication of synergism (cf. S. R. Colby; in Weeds 15 (1967) p. 20 to 22):
(§3) Crop plants were grown outdoors on plots under natural outdoor conditions, and seeds or rhizome pieces of typical harmful plants were laid out or the natural weed growth was utilized. […] After the application, for example 2, 4, 6 and 8 weeks after the application, the effect of the preparations was scored visually by comparison with untreated controls (cf. scoring in Section 1). […]

[2] = system: winter wheat; test: Example 6 field trial, stage begin of VERPE blossom: crop damage; type: in vivo, Triticum aestivum; details: 50 g of ai/ha; 28 days after application
Method: as §1, §2, §3

[3] = system: Chenopodium album; test: Example 7a field trial, 2-4 leaf stage: herbicidal effect; type: in vivo; details: 28 days after application
Method: as §1, §2
(§4) Crop plants were grown outdoors on plots under natural outdoor conditions, and seeds or rhizome pieces of typical harmful plants were laid out or the natural weed growth was utilized. Treatment with the compositions according to the invention was carried out after the harmful plants had emerged and the crop plants were, generally, at the 2- to 4-leaf stage; in some cases (as stated), application of individual active compounds or active compound combinations was carried out pre-emergence (cf. Section 1) or post-emergence (cf. Section 2) or as a sequential treatment partly pre-emergence and/or post-emergence. After the application, for example 2, 4, 6 and 8 weeks after the application, the effect of the preparations was scored visually by comparison with untreated controls (cf. scoring in Section 1). In the field trial as well, the compositions according to the invention have synergistic herbicidal activity against a broad spectrum of economically important weed grasses and broad-leaved weeds. […] Moreover, the effects in essential phases of the scoring period were above the expected values according to Colby, also indicating synergism. […]

[4] = system: Veronica persicaria; test: Example 6 field trial, stage begin of VERPE blossom: herbicidal effect; type: in vivo; details: 50 g of ai/ha; 28 days after application
Method: as §1, §2, §3

[5] = system: winter wheat; test: Example 7b field trial, 2-4 leaf stage: crop damage; type: in vivo, Triticum aestivum; details: 50 g of ai/ha; 28 days after application
Method: as §1, §2, §3

[6] = system: winter wheat; test: Example 7a field trial, 2-4 leaf stage: crop damage; type: in vivo, Triticum aestivum; details: 28 days after application
Method: as §1, §2, §4

[7] = system: Papaver rhoeas; test: Example 5 field trial, 2-4 leaf stage: herbicidal effect; type: in vivo; details: 28 days after application
Method: as §1, §2, §4

[8] = system: winter wheat; test: Example 3 field trial, fall application 2-4 leaf stage: crop damage; type: in vivo, Triticum aestivum; details: 60 days after application
Method: as §1, §2, §3

[9] = system: winter barley; test: Example 5 field trial, 2-4 leaf stage: crop damage; type: in vivo, Hordeum vulgare; details: 28 days after application
Method: as §1, §2, §4

[10] = system: winter barley; test: Example 1 field trial, 2-4 leaf stage: crop damage; type: in vivo, Hordeum vulgare; details: 28 days after application
Method: as §1, §2
(§5) Crop plants were grown outdoors on plots under natural outdoor conditions, and seeds or rhizome pieces of typical harmful plants were laid out or the natural weed growth was utilized. Treatment with the compositions according to the invention was carried out after the harmful plants had emerged and the crop plants were, generally, at the 2- to 4-leaf stage; in some cases (as stated), application of individual active compounds or active compound combinations was carried out pre-emergence (cf. Section 1) or post-emergence (cf. Section 2) or as a sequential treatment partly pre-emergence and/or post-emergence. After the application, for example 2, 4, 6 and 8 weeks after the application, the effect of the preparations was scored visually by comparison with untreated controls (cf. scoring in Section 1). In the field trial as well, the compositions according to the invention have synergistic herbicidal activity against a broad spectrum of economically important weed grasses and broad-leaved weeds. […] Moreover, the effects in essential phases of the scoring period were above the expected values according to Colby, also indicating synergism. In contrast, the crop plants were, as a consequence of the treatments with the herbicidal compositions, damaged only to a small degree, if at all.

[11] = system: winter barley; test: Example 2 field trial, fall application 2-4 leaf stage: crop damage; type: in vivo, Hordeum vulgare; details: 45 days after the application
Method: as §1, §2, §3

[12] = system: Papaver rhoeas; test: Example 2 field trial, fall application 2-4 leaf stage: herbicidal effect; type: in vivo; details: 45 days after the application
Method: as §1, §2, §3

[13] = system: Aphanes arvensis; test: Example 4 field trial, application fall 2-4 leaf stage: herbicidal effect; type: in vivo; details: 100 g of ai/ha; 60 days after application
Method: as §1, §2, §3

[14] = system: Veronica hederifolia; test: as above; type: in vivo; details: 100 g of ai/ha; 60 days after application
Method: as §1, §2, §3

[15] = system: Papaver rhoeas; test: Example 1 field trial, 2-4 leaf stage: herbicidal effect; type: in vivo; details: 28 days after application
Method: as §1, §2, §5

[16] = system: winter wheat; test: Example 4 field trial, application fall 2-4 leaf stage: crop damage; type: in vivo, Triticum aestivum; details: 100 g of ai/ha; 60 days after application
Method: as §1, §2, §3

[17] = system: Viola arvensis; test: Example 3 field trial, fall application 2-4 leaf stage: herbicidal effect; type: in vivo; details: 60 days after application
Method: as §1, §2, §3

[18] = system: Galium aparine; test: Example 10 pre-emergence application, fall: herbicidal effect; type: in vivo; details: 180 g of ai/ha; 169 days after application
Source text: (§6) Seeds or rhizome pieces of monocotyledonous and dicotyledonous weed plants are placed in sandy loam soil in pots and covered with soil. The compositions, formulated in the form of concentrated aqueous solutions, wettable powders or emulsion concentrates, are then applied to the surface of the soil cover as aqueous solution, suspension or emulsion at an application rate of 600 to 800 l of water/ha (converted), in various dosages. After the treatment, the pots are placed in a greenhouse and kept under good growth conditions for the weeds. After the test plants have emerged, the damage to the plants or the negative effects on the emergence is scored visually after a test period of 3 to 4 weeks by comparison with untreated controls. As shown by the test results, the compositions according to the invention have good herbicidal pre-emergence activity against a broad spectrum of weed grasses and broad-leaved weeds.
as §1, §2, §5

[19] = system: winter wheat; test: Example 16 field trial, post-emergence, 2- to 3-leaf stage: crop damage; type: in vivo, Triticum aestivum; details: in vivo
Method: as §1, §2, §3

[20] = system: winter wheat; test: Example 10 pre-emergence application, fall: crop damage; type: in vivo, Triticum aestivum; details: winter wheat (Triticum aestivum), in vivo, 169 days
Source text: as §6, §1, §2, §5

[21] = system: winter barley; test: Example 16 field trial, post-emergence, 2- to 3-leaf stage: crop damage; type: in vivo, Hordeum vulgare; details: in vivo
Method: as §1, §2, §3

[22] = system: Anthemis arvensis; test: Example 16 field trial, post-emergence, 2- to 3-leaf stage: herbicidal effect; type: in vivo; details: 180 g of ai/ha; 69 days after application
Method: as §1, §2, §5

[23] = system: Matricaria chamomilla; test: as above; type: in vivo; details: 180 g of ai/ha; 69 days after application
Method: as §1, §2, §5

[24] = system: Myosotis arvensis; test: as above; type: in vivo; details: 180 g of ai/ha; 69 days after application
Method: as §1, §2, §5

[25] = system: Viola arvensis; test: as above; type: in vivo; details: 180 g of ai/ha; 69 days after application
Method: as §1, §2, §5

[26] = system: Papaver rhoeas; test: as above; type: in vivo; details: 180 g of ai/ha; 69 days after application
Method: as §1, §2, §5

[27] = system: Lamium ssp.; test: as above; type: in vivo; details: 180 g of ai/ha; 69 days after application
Method: as §1, §2, §5

[28] = system: Galium aparine; test: as above; type: in vivo; details: 180 g of ai/ha; 69 days after application
Method: as §1, §2, §5

[29] = system: Zea mays (corn); test: Example 17 field trial, pre-emergence: crop damage; type: in vivo; details: in vivo
Source text: as §6
The herbicidal efficacy of the active compounds or active compound mixtures was scored visually using the treated plots in comparison to untreated control plots. The damage and development of all above-ground parts of the plants were recorded. […]
as §2, §3

[30] = system: Setaria faberi; test: Example 17 field trial, pre-emergence: herbicidal effect; type: in vivo; details: 16 days after application
Source text: as §6, §1, §2, §5

[31] = system: Ipomoea hederacea; test: as above; type: in vivo; details: 16 days after application
Source text: as §6, §1, §2, §5

[32] = system: corn which is glufosinate-ammonium-resistant; test: Example 18 field trial, 3-leaf stage: crop damage; type: in vivo, Corn (LL); details: 31 days after application
Method: The damage and development of all above-ground parts of the plants were recorded.
Crop plants were grown outdoors on plots under natural outdoor conditions, and seeds or rhizome pieces of typical harmful plants were laid out or the natural weed growth was utilized.

[33] = system: Elusine indica; test: Example 18 field trial, 3-leaf stage: herbicidal effect; type: in vivo; details: 31 days after application
Method: as §1, §2, §4

## CCC(CCc1ccccc1)Nc1nc(N)nc(C(C)(C)F)n1 (stereo not drawn) [(A3), 4-amino-6-(1-fluoro-1-methylethyl)-2-(3-phenyl-1-ethylpropylamino)-1,3,5-triazine]
[1]
  herbicidal effect, STEME: 48%
[2]
  damage, TRZAW: 0%
[3]; 25 g of ai/ha
  herbicidal effect, CHEAL: 5%
[3]; 50 g of ai/ha
  herbicidal effect, CHEAL: 35%
[3]; 100 g of ai/ha
  herbicidal effect, CHEAL: 85%
[4]
  herbicidal effect, VERPE: 55%
[5]
  damage, TRZAW: 2%
[6]; 25 g of ai/ha
  damage, TRZAW: 1%
[6]; 50 g of ai/ha
  damage, TRZAW: 0%
[6]; 100 g of ai/ha
  damage, TRZAW: 10%

## CC(COc1cccc(Cl)c1)Nc1nc(N)nc(C(C)(C)F)n1 (stereo not drawn) [(A4), 4-amino-6-(1-fluoro-1-methylethyl)-2-[2-(3-chlorophenoxy)-1-methylethyl-amino]-1,3,5-triazine]
[7]; 50 g of ai/ha
  herbicidal effect, PAPRH: 0%
[7]; 100 g of ai/ha
  herbicidal effect, PAPRH: 0%
[8]; 50 g of ai/ha
  damage, TRZAW: 0%
[8]; 100 g of ai/ha
  damage, TRZAW: 0%
[9]; 50 g of ai/ha
  damage, HORVW: 0%
[9]; 100 g of ai/ha
  damage, HORVW: 0%
[10]; 25 g of ai/ha
  damage, HORVW: 0%
[10]; 50 g of ai/ha
  damage, HORVW: 0%
[10]; 100 g of ai/ha
  damage, HORVW: 0%
[11]; 50 g of ai/ha
  damage, HORVW: 0%
[11]; 100 g of ai/ha
  damage, HORVW: 0%
[12]; 50 g of ai/ha
  herbicidal effect, PAPRH: 0%
[12]; 100 g of ai/ha
  herbicidal effect, PAPRH: 0%
[13]
  herbicidal effect, Aphanes arvensis: 20%
[14]
  herbicidal effect, Veronica hederifolia: 40%
[15]; 25 g of ai/ha
  herbicidal effect, PAPRH: 0%
[15]; 50 g of ai/ha
  herbicidal effect, PAPRH: 0%
[15]; 100 g of ai/ha
  herbicidal effect, PAPRH: 0%
[16]
  damage, TRZAW: 0%
[17]; 50 g of ai/ha
  herbicidal effect, VIOAR: 78%
[17]; 100 g of ai/ha
  herbicidal effect, VIOAR: 88%

## CC(C)N(C(=O)COc1nnc(C(F)(F)F)s1)c1ccc(F)cc1 [(B1.2.1), fluthiamide, reference compound]
[18]
  herbicidal effect, GALAP: 45%
[19]
  herbicidal effect (%), TRZAW (crop): 0%
[20]
  damage, TRZAW: 2%
[21]
  herbicidal effect (%), HORVW (crop): 0%
[22]
  herbicidal effect (%), ANTAR: 25%
[23]
  herbicidal effect (%), MATCH: 61%
[24]
  herbicidal effect (%), MYOAR: 16%
[25]
  herbicidal effect (%), VIOAR: 20%
[26]
  herbicidal effect (%), PAPRH: 12%
[27]
  herbicidal effect (%), LAMSS: 87%
[28]
  herbicidal effect (%), GALAP: 68%

## CS(=O)(=O)c1cc(C(F)(F)F)ccc1C(=O)c1cnoc1C1CC1 [(B3.4.5), isoxaflutole, reference compound]
[29]
  damage, ZEAMA: 0%
[30]; 105 g of ai/ha
  herbicidal effect, SETFA: 90%
[30]; 210 g of ai/ha
  herbicidal effect, SETFA: 93%
[31]; 105 g of ai/ha
  herbicidal effect, IPOHE: 87%
[31]; 210 g of ai/ha
  herbicidal effect, IPOHE: 85%

## CP(=O)(O)CCC(N)C(=O)O (stereo not drawn) [(B4.1.2), glufosinate monoammonium salt]
[32]; 300 g of ai/ha
  damage, Corn (LL): 0%
[32]; 600 g of ai/ha
  damage, Corn (LL): 0%
[33]; 300 g of ai/ha
  herbicidal effect, ELEIN: 55%
[33]; 600 g of ai/ha
  herbicidal effect, ELEIN: 78%
